Experimental data published in patent publication US9573966B2, “Anti-cancer activity of novel bicyclic heterocycles” (Katholieke Universiteit Leuven, K.U.Leuven R&D, priority 2010, dated 2017).

Columns and labels:
HSB-2 cells = assay: Inhibition of HSB-2 leukemic cell line proliferation (WST-1); assay type: cell-based, human; conditions: cytotoxicity on HSB-2 cells, two days incubation, WST-1 read-out
Method: (§1) HSB2 cell line, a human acute lymphoblastic leukemia (ATCC; CCL-120.1) cell line, was grown in RPMI-1640 medium (Lonza, Belgium) supplemented with 10% fetal calf serum (Hyclone, US) and antibiotics. Exponential growing phase cells were seed in flat bottom 96-well microplates (TTP, Switzerland) at 50000 cells per well in 220 μl of medium with compounds (in different concentrations) and incubated for two days at 37° C., 5% CO2. After incubation, 100 μl of supernatant were removed and 10 μl of WST-1 (Roche, Switzerland) were added. After 2 hour incubation at 37° C., 5% CO2, optical densities were measured at 450 nm. Proliferation is calculated with respect of control points (no compound and treatment with Triton X100 to have maximum and minimum proliferation data). The IC50 was determined from a graph with at least four points, each derived from the mean of at least 2 experiments. […] The results are shown in Table 1 for a number of compounds.

HL-60 cells = assay: Inhibition of HL-60 leukemic cell line proliferation (WST-1); assay type: cell-based, human; conditions: cytotoxicity on HL-60 cells, two days incubation, WST-1 read-out
Method: as §1, with “HL-60 cell” for “HSB2 cell”, “human promyelocytic” for “human acute lymphoblastic”, “(ATCC; CCL-240)” for “(ATCC; CCL-120.1)”, “Table 2” for “Table 1”

Row | Structure (SMILES) | IC50 (HSB-2 cells) [µM] | IC50 (HL-60 cells) [µM] | IC50 (HSB-2 cells; Homo sapiens, HSB2, 48 h) [µM] | IC50 (HL-60 cells; Homo sapiens, 48 h) [µM]
1 | Nc1nc(N2CCN(C(=O)COc3ccc(Cl)cc3)CC2)c2nc(-c3ccc[n+]([O-])c3)sc2n1 [Example 121b, 5-amino-7-[4-(4-chlorophenoxyacetyl)piperazin-1-yl]-2-(N-oxopyridine-3-yl)thiazolo[5,4-d]pyrimidine] | 6.19 | 4.89 |  | 
2 | C[S+]([O-])c1nc2c(N3CCN(C(=O)COc4ccc(Cl)cc4)CC3)nc(N)nc2s1 (centres unmarked) [Example 126, 5-amino-7-[4-(4-chlorophenoxyacetyl)piperazin-1-yl]-2-methylsulfinyl-thiazolo[5,4-d]pyrimidine] |  |  | 5.47 | 3.82
3 | N#Cc1ccc(NC(=O)N2CCN(c3nc(N)nc4sc(-c5ccc(F)cc5)nc34)CC2)cc1 [Example 216, 4-(5-amino-2-(4-fluorophenyl)thiazolo[5,4-d]pyrimidin-7-yl)-N-(4-cyanophenyl)piperazine-1-carboxamide] |  |  | 4.9 | 6.41
4 | N#Cc1ccc(NC(=O)N2CCN(c3nc(N)nc4sc(Cc5ccc(F)cc5)nc34)CC2)cc1 [Example 232, 4-(5-amino-2-(4-fluorobenzyl)thiazolo[5,4-d]pyrimidin-7-yl)-N-(4-cyanophenyl)piperazine-1-carboxamide] |  |  | 6.89 | 9.89
5 | Nc1nc(N2CCN(C(=O)COc3ccc(Cl)cc3)CC2)c2nc(-c3cccc(Cl)c3)[nH]c2n1 [Example 393, 1-(4-(2-amino-8-(3-chlorophenyl)-9H-purin-6-yl)piperazin-1-yl)-2-(4-chlorophenoxy)ethanone] |  |  | 1.38 | 9.18
6 | CCC(c1ccc(F)cc1)c1nc2c(N3CCN(C(=O)COc4ccc(Cl)cc4)CC3)nc(N)nc2s1 (centres unmarked) [Example 150, 5-amino-2-[1-(4-fluorophenyl)propyl]-7-(4-[2-(4-chlorophenoxy)acetyl]piperazin-1-yl)thiazolo[5,4-d]pyrimidine] |  |  | > 10 | > 10
7 | Cc1cc(Cl)ccc1OCC(=O)N1CCN(c2nc(N)nc3sc(-c4ccc(F)cc4)nc23)CC1 [Example 213, 1-(4-(5-amino-2-(4-fluorophenyl)thiazolo[5,4-d]pyrimidin-7-yl)piperazin-1-yl)-2-(4-chloro-2-methylphenoxy)ethanone] |  |  | 5.25 | 6.72
8 | COc1ccc(CNC(=O)N2CCN(c3nc(N)nc4sc(-c5cccnc5)nc34)CC2)cc1 [Example 278, 4-(5-amino-2-(pyridin-3-yl)thiazolo[5,4-d]pyrimidin-7-yl)-N-(4-methoxybenzyl)piperazine-1-carboxamide] |  |  | 0.75 | 0.68
9 | Nc1nc(N2CCN(C(=O)COc3ccc(Cl)cc3)CC2)c2nc(-c3ccccn3)sc2n1 [Example 282, 1-(4-(5-amino-2-(pyridin-2-yl)thiazolo[5,4-d]pyrimidin-7-yl)piperazin-1-yl)-2-(4-chlorophenoxy)ethanone] |  |  | 0.56 | 0.92
10 | Nc1nc(N2CCN(C(=O)Nc3ccc(Br)cc3)CC2)c2nc(-c3ccc(F)cc3)sc2n1 [Example 218, 4-(5-amino-2-(4-fluorophenyl)thiazolo[5,4-d]pyrimidin-7-yl)-N-(4-bromophenyl)piperazine-1-carboxamide] |  |  | 7.05 | 7.35
11 | COc1ccccc1NC(=O)N1CCN(c2nc(N)nc3sc(-c4ccc(F)cc4)nc23)CC1 [Example 219, 4-(5-amino-2-(4-fluorophenyl)thiazolo[5,4-d]pyrimidin-7-yl)-N-(2-methoxyphenyl)piperazine-1-carboxamide] |  |  | 5.83 | 6.19
12 | Nc1nc(N2CCN(C(=O)COc3ccccc3)CC2)c2nc(-c3ccc(F)cc3)sc2n1 [Example 130, 5-amino-2-(4-fluorophenyl)-7-(4-(2-phenoxyacetyl)-piperazin-1-yl)-thiazolo[5,4-d]pyrimidine] |  |  | 0.57 | 0.82
13 | Nc1nc(N2CCN(C(=O)COc3ccc(Cl)cc3)CC2)c2nc(SCc3ccccc3)[nH]c2n1 [Example 426, 1-(4-(2-amino-8-(benzylthio)-9H-purin-6-yl)piperazin-1-yl)-2-(4-chlorophenoxy)ethanone] |  |  | > 10 | > 10
14 | Nc1nc(N2CCN(C(=O)COc3cccc([N+](=O)[O-])c3)CC2)c2nc(-c3ccc(F)cc3)sc2n1 [Example 129, 5-amino-2-(4-fluorophenyl)-7-(4-[2-(3-nitrophenoxy)acetyl]-piperazin-1-yl)-thiazolo[5,4-d]pyrimidine] |  |  | 4.76 | 9.74
15 | Nc1nc(N2CCN(C(=O)COc3ccc(Cl)cc3)CC2)c2nc(CCc3ccccc3)sc2n1 [Example 118, 5-amino-7-[4-(4-chlorophenoxyacetyl)piperazin-1-yl]-2-(2-phenylethyl)thiazolo[5,4-d]pyrimidine] |  |  | 4.53 | 9.97
16 | Nc1nc(N2CCN(C(=O)COc3ccc(Cl)cc3)CC2)c2nc(-c3ccc(C(F)(F)F)cc3)[nH]c2n1 [Example 394, 1-(4-(2-amino-8-(4-(trifluoromethyl)phenyl)-9H-purin-6-yl)piperazin-1-yl)-2-(4-chlorophenoxy)ethanone] |  |  | 7.37 | 8.78
17 | Nc1nc(N2CCN(C(=O)COc3ccc(Cl)cc3)CC2)c2nc(C3CCCCC3)sc2n1 [Example 120, 5-amino-7-[4-(4-chlorophenoxyacetyl)piperazin-1-yl]-2-cyclohexylthiazolo[5,4-d]pyrimidine] |  |  | 4.87 | > 10
18 | Nc1nc(N2CCN(C(=O)COc3cccc([N+](=O)[O-])c3)CC2)c2nc(CCc3ccc(F)cc3)sc2n1 [Example 131, 5-amino-2-[2-(4-fluorophenyl)ethyl]-7-(4-[2-(3-nitrophenoxy)acetyl]piperazin-1-yl)-thiazolo[5,4-d]pyrimidine] |  |  | > 10 | > 10
19 | Cc1cccc(NC(=O)N2CCN(c3nc(N)nc4sc(CCc5ccc(F)cc5)nc34)CC2)c1 [Example 133, 5-amino-2-[2-(4-fluorophenyl)ethyl]-7-(4-m-tolylcarbamoylpiperazin-1-yl)-thiazolo[5,4-d]pyrimidine] |  |  | 12.3 | > 10
20 | Nc1nc(N2CCN(C(=O)CCc3ccc(F)cc3)CC2)c2nc(-c3ccc(F)cc3)sc2n1 [Example 236, 1-(4-(5-amino-2-(4-fluorophenyl)thiazolo[5,4-d]pyrimidin-7-yl)piperazin-1-yl)-3-(4-fluorophenyl)propan-1-one] |  |  | 5.57 | 8.2
21 | Nc1nc(N2CCN(C(=O)COc3ccc(F)cc3)CC2)c2nc(-c3ccco3)sc2n1 [Example 209, 1-(4-(5-amino-2-(furan-2-yl)thiazolo[5,4-d]pyrimidin-7-yl)piperazin-1-yl)-2-(4-fluorophenoxy)ethanone] |  |  | 0.51 | 0.57
22 | N#Cc1ccc(NC(=O)N2CCN(c3nc(N)nc4sc(-c5cccnc5)nc34)CC2)cc1 [Example 279, 4-(5-amino-2-(pyridin-3-yl)thiazolo[5,4-d]pyrimidin-7-yl)-N-(4-cyanophenyl)piperazine-1-carboxamide] |  |  | 0.68 | 0.88
23 | COc1ccc(-c2nc3c(N4CCN(C(=O)COc5ccc(Cl)cc5)CC4)nc(N)nc3[nH]2)cc1OC [Example 390, 1-(4-(2-amino-8-(3,4-dimethoxyphenyl)-9H-purin-6-yl)piperazin-1-yl)-2-(4-chlorophenoxy)ethanone] |  |  | 0.45 | > 10
24 | Nc1nc(N2CCN(C(=O)COc3ccccc3)CC2)c2nc(-c3ccc(F)cc3)[nH]c2n1 [Example 401, 1-(4-(2-amino-8-(4-fluorophenyl)-9H-purin-6-yl)piperazin-1-yl)-2-phenoxyethanone] |  |  | > 10 | > 10
25 | CSc1nc2c(N3CCN(C(=O)COc4ccc(Cl)cc4)CC3)nc(N)nc2[nH]1 [Example 424, 1-(4-(2-amino-8-(methylthio)-9H-purin-6-yl)piperazin-1-yl)-2-(4-chlorophenoxy)ethanone] |  |  | 4.6 | 0.01
26 | CSc1nc2c(N3CCN(C(=O)COc4ccc(Cl)cc4)CC3)nc(N)nc2n1C [Example 428, 1-(4-(2-amino-9-methyl-8-(methylthio)-9H-purin-6-yl)piperazin-1-yl)-2-(4-chlorophenoxy)ethanone] |  |  | 0.75 | 1.59
27 | Nc1nc(N2CCN(CC(=O)Nc3cccnc3)CC2)c2nc(-c3ccc(F)cc3)[nH]c2n1 [Example 412] | > 10 | > 10 |  | 
28 | CN(C(=O)CN1CCN(c2nc(N)nc3oc(CCc4ccc(F)cc4)nc23)CC1)c1ccccc1 [Example 198, 5-amino-2-[2-(4-fluorophenyl)ethyl]-7-(4-[(methylphenyl-carbamoyl)methyl]piperazin-1-yl)-oxazolo[5,4-d]pyrimidine] |  |  | > 10 | > 10
